In data set [1] the test system is Chinese Hamster Ovary (CHO) cells. Nature of the data set: Transfection of CHO cells using lipopolyplexes, β-galactosidase reporter gene expression. The class given is cell-based. An excerpt:
Transfection of Chinese Hamster Ovary (CHO) Cells Using Lipopolyplexes
Plasmid pEGlacZ containing the bacterial β-galactosidase gene under the control of the human cytomegalovirus immediate early promoter was constructed using standard molecular cloning techniques. The 7676 base pair (bp) plasmid was derived by cleavage of pGFP-N1 (Clontech) with HindIII and BclI to remove the reporter gene fragment. The β-galactosidase coding region from pSV-β-galactosidase (Promega) was then inserted via a HindIII to BamHI fragment. Plasmid DNA was then purified using an anion-exchange column (Qiagen Ltd). The average molecular weight per base pair was calculated to be 620.84 Da (310.5 Da for a monophosphorylated nucleotide). The amount of negative charge on the plasmid was then determined on the basis that a single negative charge is associated with each nucleotide.
[…] Lipid films were formed by rotary evaporation at 60° C. and further dried on a freeze drier overnight. Rehydration of the lipid film was performed by adding 4 mL of deionised water and […] 1M NaOH at 60° C. with vigorous agitation in the presence of […] diameter glass beads, taking care to maintain pH in the range 7.5 to 8.0, resulting in the formation of multi-lamellar vesicles (MLVs).
Stock solutions of R26 peptide as a DNA condensing agent at 144 μg/ml and plasmid DNA at 60 μg/ml were prepared in de-ionized water. Equal volumes of each were mixed by adding the plasmid DNA drop-wise to the R26 solution with vortexing. The charge ratio of the polyplex was 3.9:1 (peptide positive charged residues to DNA negative charged phosphates).
The polyplex preparation was diluted in 10 mM HEPES buffer pH 8 to 15 μg/ml DNA equivalent. […] Lipopolyplexes were formed by adding equal volumes of polyplex solution drop-wise to liposome suspension with vortexing.
CHO cells were seeded into 24-wellplates at 100 000 cells per well in Opti-MEM (Gibco BRL) media containing 10% dialysed foetal calf serum (FCS, Gibco BRL) and maintained 37° C. in 5% CO2 incubator for 24 h before the experiment. The adherent cells were washed once in Opti-MEM (Gibco BRL) prior to transfection. Washed medium was removed and replaced with 0.5 ml of Opti-MEM to which 167 μl of lipopolyplex was added ([…]). Individual lipopolyplex preparations were tested in triplicate wells. Cells were incubated for a further 4 h at 37° C. in 5% CO2 before removal of the medium and non-cell associated lipopolyplex and addition of 1 ml of fresh medium (Dulbecco's modified Eagle's medium (DMEM), plus glutamate, asparagine, adenosine, guanosine, cytidine, uridine, thymidine and 10% FCS.
Cells were cultured for a further 72 h before harvesting, the medium was aspirated and the cells washed twice with 1 ml phosphate buffered saline. Cells were lysed by the addition of 200 μl per well of lysis buffer (Promega) and the plate was agitated on an orbital mixer for 15 min. The lysates were transferred to individual Eppendorf tubes, taking care to remove attached cells by scraping with a pipette tip prior to removal. Cell debris was removed by centrifugation in a microfuge for 5 min followed by transfer of the supernatant into clean Eppendorf tubes.
Levels of β-galactosidase (β-gal) activity were determined using a colorimetric enzyme assay kit (Promega) as follows: 50 μl of cell extract was incubated with the kit substrate, O-nitrophenyl-β-D-galactopyranoside in buffer solution for 30 min at 37° C. The reaction was stopped by the addition of 150 μl of 1M sodium carbonate and the absorbance measured at 420 nm (Multiskan Ascent plate reader, Labsystems). Absorbance values were interpolated from a calibration curve to give enzyme activity in mU per ml. In turn these values were normalised in reference to lysate protein concentration as determined by a BCA assay kit (Pierce) and expressed as mU of β-gal per mg of protein.
An anionic liposome composition was evaluated comprising DOPC and CHEMS in the presence and absence of Compound 2. […]
For orientation: A reporter such as luciferase makes a cellular process visible.

Where a name gives a salt, the structure may show the parent alone.

On to `CCCCCCCCCCCCCCCCCCOC[C@@H](COP(=O)(OCCCCCCCCCCCc1cc(CC(C)(C)C(=O)OC)cc(CC(C)(C)C(=O)OC)c1)Oc1ccccc1Cl)OCCCCCCCCCCCCCCCCCC` (stereo partly shown), for which the melting point lay within 27 to 27.5 °C.
In the case of `CC(C)CCCC(C)C1CCC2C3CC=C4C[C@H](OP(=O)(O)OCCCCCCCCCCCc5cc(CC(C)(C)C(=O)O)cc(CC(C)(C)C(=O)O)c5)CC[C@]4(C)C3CC[C@]12C` (stereo partly drawn) [Compound 2, 3,3′-(5-(11-(((((3R,10R,13R)-10,13-Dimethyl-17-(6-methylheptan-2-yl)-2,3,4,7,8,9,10,11,12,13,14,15,16,17-tetradecahydro-1H-cyclopenta[a]phenanthren-3-yl)oxy)(hydroxy)phosphoryl)oxy)undecyl)-1,3-phenylene)bis(2,2-dimethylpropanoic acid), ammonium salt], the reporter gene expression entry in data set [1] (Example 22, FIG. 1, cholesterol/oleic acid totally substituted with Compound 2 at 40 mol %) is “highest”; in data set [1] (Example 22, FIG. 1, lipid to DNA ratio 2:1, Compound 2 content 1 to 40 mol %) it was “increased with increasing content of Compound 2”. Besides, the “reporter gene expression levels” value in data set [1] (Example 22, FIG. 1, higher lipid to DNA ratios (above 2:1), exception: 5:1 lipid to DNA with 20 mol % Compound 2) was “not significant”. Further, in data set [1] (Example 22, FIG. 1, lipopolyplexes with cholesterol, oleic acid and DOPC, 1 mol % Compound 2), the “expression of β-galactosidase” value is “little or no expression”. In addition, in data set [1] (Example 23, FIG. 2, DOPC/CHEMS lipopolyplexes, 20 mol % Compound 2, lipid to DNA ratios 0.6:1 to 5.5:1), the “levels of β-galactosidase expression” value is given as “high, significant levels”. The “transfection enhancement via endosomolytic properties” value in data set [1] (overall conclusion from Examples 22 and 23) was “confirming the effectiveness of Compound 2 as a transfection enhancing agent”.

The melting point is the temperature of the solid-liquid transition.
